Reference: ChEMBL document CHEMBL3885861, “Open TG-GATES”

Species on record: Rattus norvegicus
Experiment: Open TG-GATES - Regimen: Daily Repeat
Type: toxicity, organism-based, Sprague-Dawley
Design: regimen Daily Repeat, gender Male, age 6 weeks
Settings: in vivo, po, 300 mg/kg, route gavage, dose level Middle; for APTT / Bas / Eos / Fbg / Hb / Ht / Lym / MCH / MCHC / MCV / Mono / Neu / PT / Plat / RBC / Ret / WBC: tissue Blood
[1] = 72 h, tissue Kidney, time 3 day
[2] = 72 h, tissue Plasma, time 3 day

COc1ccc(Cl)cc1C(=O)NCCc1ccc(S(=O)(=O)NC(=O)NC2CCCCC2)cc1 [GLYBURIDE]
TERMINAL_BW (72 h, time 3 day): 227.7 g | APTT (72 h, time 3 day): 19.4 s | Bas (72 h, time 3 day): 0% | Eos (72 h, time 3 day): 1% | Fbg (72 h, time 3 day): 222.4 mg/dL | Hb (72 h, time 3 day): 13.3 g/dL | Ht (72 h, time 3 day): 39.4% | Lym (72 h, time 3 day): 79.6% | MCH (72 h, time 3 day): 21.3 pg | MCHC (72 h, time 3 day): 33.7% | MCV (72 h, time 3 day): 63.2 fL | Mono (72 h, time 3 day): 2.8% | Neu (72 h, time 3 day): 16.4% | PT (72 h, time 3 day): 12.4 s | Plat (72 h, time 3 day): 120.5 x10_4/uL | RBC (72 h, time 3 day): 624 x10_4/ul | Ret (72 h, time 3 day): 5.4% | WBC (72 h, time 3 day): 97.9 x10_2/uL | KIDNEY_L [1]: 1 g | KIDNEY_R [1]: 1 g | KIDNEY_TOTAL [1]: 2.1 g | LIVER (72 h, tissue Liver, time 3 day): 10.5 g | A/G [2]: 1.5 | ALP [2]: 912.2 IU/L | ALT [2]: 40.4 IU/L | AST [2]: 65.4 IU/L | BUN [2]: 14.2 mg/dL | CRE [2]: 0.4 mg/dL | Ca [2]: 10.7 mg/dL | Cl [2]: 103 meq/L | DBIL [2]: 0.088 mg/dL | GLC [2]: 194.6 mg/dL | IP [2]: 7.1 mg/dL | K [2]: 3.8 meq/L | LDH [2]: 190.4 IU/L | Na [2]: 140.6 meq/L | PL [2]: 135.6 mg/dL | RALB [2]: 3.3 g/dL | TBIL [2]: 0.1 mg/dL | TC [2]: 72 mg/dL | TG [2]: 71.4 mg/dL | TP [2]: 5.4 g/dL | gamma-GTP [2]: 0.6 IU/L | TERMINAL_BW ([…], time 7 day): 262.8 g | TERMINAL_BW ([…], time 14 day): 322.5 g | TERMINAL_BW ([…], time 28 day): 400.8 g | APTT ([…], time 7 day): 20.6 s | Bas ([…], time 7 day): 0% | Eos ([…], time 7 day): 1% | Fbg ([…], time 7 day): 220.6 mg/dL | Hb ([…], time 7 day): 13.6 g/dL | Ht ([…], time 7 day): 40% | Lym ([…], time 7 day): 78.4% | MCH ([…], time 7 day): 20.6 pg | MCHC ([…], time 7 day): 34% | MCV ([…], time 7 day): 60.5 fL | Mono ([…], time 7 day): 2.4% | Neu ([…], time 7 day): 17.8% | PT ([…], time 7 day): 12.5 s | Plat ([…], time 7 day): 128.7 x10_4/uL | RBC ([…], time 7 day): 661.2 x10_4/ul | Ret ([…], time 7 day): 5.2% | WBC ([…], time 7 day): 99.5 x10_2/uL | APTT ([…], time 14 day): 21.4 s | Bas ([…], time 14 day): 0% | Eos ([…], time 14 day): 1% | Fbg ([…], time 14 day): 226.6 mg/dL | Hb ([…], time 14 day): 14.1 g/dL | Ht ([…], time 14 day): 41.1% | Lym ([…], time 14 day): 81.2% | MCH ([…], time 14 day): 20.5 pg | MCHC ([…], time 14 day): 34.4% | MCV ([…], time 14 day): 59.6 fL | Mono ([…], time 14 day): 3.2% | Neu ([…], time 14 day): 13.8% | PT ([…], time 14 day): 12.3 s | Plat ([…], time 14 day): 124.7 x10_4/uL | RBC ([…], time 14 day): 689.4 x10_4/ul | Ret ([…], time 14 day): 4.5% | WBC ([…], time 14 day): 105.4 x10_2/uL | APTT ([…], time 28 day): 21.1 s | Bas ([…], time 28 day): 0% | Eos ([…], time 28 day): 1% | Fbg ([…], time 28 day): 217.4 mg/dL | Hb ([…], time 28 day): 15 g/dL | Ht ([…], time 28 day): 42.8%
